Source: publication PMC4764201, “High Throughput Screen for Escherichia coli Twin Arginine Translocation (Tat) Inhibitors” (PLoS ONE, 2016)

Key:
[1] = tested on: Escherichia coli Tat pathway; experiment: Live cell assay: total mCherry fluorescence of cells producing spTorA-mCherry-SsrA (primary HTS assay); assay type: cell-based; conditions: for effect on mCherry fluorescence in culture: nigericin and/or valinomycin, 50 μM each
Source text: Having obtained the calibration and validation data described in the previous sections, we next established the protocol for the HTS. Details are provided in the Materials and Methods section. Here, we briefly summarize the assay. A single colony of E. coli strain MC4100(DE3) containing plasmids encoding TatABC and spTorA-mCherry-SsrA was inoculated into LB and grown overnight. The next morning, cells were transferred to fresh media, the production of TatABC and spTorA-mCherry-SsrA was induced, and cultures were aliquoted onto plates with test compounds. NaSCN was included in control wells to simulate a hit. Cells were grown for 8 h, followed by incubation at 4°C overnight, and then read the next day. Setting the total cellular fluorescence obtained with spTorA-mCherry-H6 under Tat^++ conditions to 100%, spTorA-mCherry-SsrA yielded a total cellular fluorescence signal of 63±14%, consistent with SsrA-induced degradation of the mCherry protein. The total cellular fluorescence was further reduced to 36±14% in the presence of 30 mM NaSCN (simulated hit), and to 41±6% in the absence of TatABC, verifying the Δψ- and Tat-dependence of the fluorescence signal (Fig 4D).
A single colony of E. coli strain MC4100(DE3) (pTatABC-DUET1, pTorA-mCherry-SsrA) was inoculated into a 100 mL LB culture supplemented with Ap and Cm and grown at 37°C with shaking (250 rpm) overnight. Cells were harvested by centrifugation at 4,000g for 10 min at room temperature (RT), suspended in 10 mL fresh LB broth supplemented with Ap and Cm, and the optical density (A500) was determined. Simultaneously, 700 mL LB supplemented with 100 mM arabinose, 2 mM IPTG, 100 μg/mL Ap and 68 μg/mL Cm was filter-sterilized (0.22 μm), and then divided into 200 mL (A) and 500 mL (B) portions. Sterile NaSCN (30 mM final; 1.5 mL of 4 M NaSCN) was added to portion A, and an equal ratio of sterile water was added to portion B (3.75 mL). Media and cells were transferred to the HTS facility on ice.
A CyBi-Well vario pipetting workstation (CyBio, Jena, Germany) was used to dispense library compounds and cultures. Library compounds (1 μL) solubilized in DMSO were added to 384-well black, clear-bottomed plates (Greiner Bio-one, Germany) in columns 3 to 22 (320 wells/plate). For controls, DMSO (1 μL) was added to each well in columns 1, 2, […], to achieve DMSO uniformity across the plate. Both portions of LB media were inoculated with E. coli MC4100(DE3) (pTatABC-DUET1, pTorA-mCherry-SsrA) from the concentrated stock to a final A500 = 0.15. The media with 30 mM NaSCN (positive control, or simulated hit) was dispensed into each well of columns 1 and 24 (49 μL each). An equivalent volume of media without NaSCN was dispensed into each well of columns 2 to 23. Columns 2 and 23 lacked NaSCN and test compounds and served as negative controls. The first 12,800 compounds were screened at 5 μM (plates 1–40), and the remaining 38,800 compounds were screened at 20 μM (plates 41–162).
(§1) The plates containing cells and dispersed test compounds were grown with shaking (200 rpm) at 25°C for 8 h. Plates were individually mounted, not stacked, on a hollow plastic platform, allowing adequate air circulation. Following the 8 h incubation, plates were transferred to 4°C for 16 h. Each plate was covered with an empty plate to prevent condensation on the lid. […] Following the incubation, plates were read using a BMG Polarstar Omega plate reader (BMG Labtech, Ortenberg, Germany) to determine optical densities (A500) and mCherry fluorescence intensities (EX = 584 nm, EM = 620 nm).
Supplementary file pone.0149659.s003.tiff: S3 Fig IC50's for Hit Compound 181^JS. (A) The total cellular mCherry fluorescence (live cell assay; n = 1), (B) the in vitro NADH-dependent Tat transport efficiency of pre-SufI (n = 1), and (C) the maximum transmembrane electrical potential gradient (n = 1) were measured for a range of concentrations of compound 181^JS (S2E Fig). (D) SDS-PAGE gel showing in-gel fluorescence data used in (B). […]

[2] = target: E. coli Tat machinery (IMVs containing overproduced TatABC) (Escherichia coli, UniProt P69423+P69425+P69428); conditions: cited from earlier work; for effect on Tat transport in vitro: 2.5 μM of each of the two ionophores, both added
E. coli Tat machinery (IMVs containing overproduced TatABC), sequence (P69423 2-258): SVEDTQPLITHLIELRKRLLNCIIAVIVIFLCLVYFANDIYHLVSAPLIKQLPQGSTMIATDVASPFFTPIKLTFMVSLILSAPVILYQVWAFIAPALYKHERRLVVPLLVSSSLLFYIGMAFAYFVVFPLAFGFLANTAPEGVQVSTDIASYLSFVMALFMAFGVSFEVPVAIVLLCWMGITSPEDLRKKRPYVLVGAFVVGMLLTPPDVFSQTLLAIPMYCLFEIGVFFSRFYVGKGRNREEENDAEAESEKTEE
E. coli Tat machinery (IMVs containing overproduced TatABC), sequence (P69425 whole entry): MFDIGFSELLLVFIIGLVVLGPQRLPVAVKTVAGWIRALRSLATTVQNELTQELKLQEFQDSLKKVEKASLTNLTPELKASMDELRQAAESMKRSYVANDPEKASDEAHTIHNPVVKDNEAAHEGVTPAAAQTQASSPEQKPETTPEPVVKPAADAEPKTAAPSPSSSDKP
E. coli Tat machinery (IMVs containing overproduced TatABC), sequence (P69428 whole entry): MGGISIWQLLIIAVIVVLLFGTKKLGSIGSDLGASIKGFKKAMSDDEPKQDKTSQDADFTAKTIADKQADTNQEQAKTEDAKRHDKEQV

[3] = tested on: E. coli MC4100(DE3); experiment: Cell growth (optical density A500) under Tat++ conditions; assay type: cell-based, Escherichia coli
Procedure: Fig 4 Effect of Oxidative Phosphorylation Inhibitors on In Vivo Tat Transport and Sensitivity of Fluorescence Detection on Plates. (A) Effect of oxidative phosphorylation inhibitors on cell growth and mCherry fluorescence under Tat^++ conditions. Cells producing spTorA-mCherry-SsrA under Tat^++ conditions were grown at 25°C for 8 h in the presence of the indicated respiratory inhibitors. After overnight incubation at 4°C, optical densities (upper panel; A500) and total mCherry cellular fluorescence intensities (lower panel; EX = 587 nm, EM = 610 nm) were measured (n = 3). Nigericin (N; 50 μM) is a H^+/K^+ exchanger, which collapses the ΔpH gradient. Valinomycin (V; 50 μM) is a K^+ ionophore, which collapses the Δψ. NaSCN (SCN; 50 mM) collapses the Δψ. NaN3 (N3; 0.1%) inhibits the cytochrome bo3 terminal oxidase. (B) Effect of NaSCN concentration on cell density and total mCherry cellular fluorescence. Measurements were made after incubating cells overnight at 4°C (n = 3). (C) Calibration and sensitivity of mCherry fluorescence detection in 384-well plates. Overnight cultures of E. coli MC4100(DE3) cells were diluted to A500 = 0.25, 0.2, 0.15, 0.10 and 0.05, and aliquoted into 384-well plates. The spTorA-mCherry-SsrA and TatABC proteins were induced together or neither were induced, as indicated. The cells were incubated at 25°C for 8 hours, and stored overnight at 4°C. Optical densities (upper panel) and mCherry fluorescence intensities (lower panel) were determined with a BMG Polarstar Omega plate reader (at 500 nm for absorbance; EX = 584 nm, EM = 620 nm for fluorescence). For comparison, the absorbance and fluorescence intensities from purified spTorA-mCherry-H6 (30, 25, 20, 15, 10 and 5 nM) are also shown (n = 3 plates, 16 wells/plate). (D) Simulated hits on 384-well plates. Using the approach described in (C), cells (A500 = 0.15) were grown on plates under the indicated conditions, and then fluorescence intensities were measured. spTorA-mCherry-SsrA was used for conditions II-IV. spTorA-mCherry-H6 was used for a minus SsrA control (I; 100%). The SsrA tag decreased the mCherry fluorescence intensity (II; 63±14%), consistent with a decrease in cytoplasmic mCherry concentration due to SsrA-dependent degradation.
as §1
Supplementary file pone.0149659.s005.tiff: S5 Fig Effect of P. aeruginosa Tat Inhibitors on E. coli Cell Growth and Tat Transport. The concentration-dependent effects of Bay 11–7082 (A) and N-phenylmaleimide (B) on bacterial growth (black) and in vivo Tat transport of spTorA-mCherry-SsrA (red) was determined under Tat^++ conditions (top). An overnight culture of MC4100(DE3) (pTorA-mCherry-SsrA, pTatABC-Duet1) was diluted 1:50 in 10 mL fresh LB broth with appropriate antibiotics and dispensed (2 mL) into 5 tubes, and growth was continued at 37°C with shaking at 200 rpm until A500 ≈ 0.5. The indicated concentrations of the two compounds were added, and the expression of spTorA-mCherry-SsrA and TatABC were induced. Cultures were grown for another 8 h at 25°C. Cell growth was assayed by A500, and cells (1 mL, A500 = 1.0) were fractionated into cytoplasmic (C) and periplasmic (P) fractions as described. Transport of spTorA-mCherry-SsrA was assayed by in-gel fluorescence of mCherry (upper gels) and Western blot analyses (middle gels). […]

[4] = nigericin and/or valinomycin, 50 μM each

N#C[S-].[Na+] [NaSCN]
total cellular fluorescence (mCherry) ([1]; 30 mM NaSCN, spTorA-mCherry-H6 under Tat++ = 100%, spTorA-mCherry-SsrA without NaSCN 63±14%): 36±14% | reduction of mCherry fluorescence ([1]; NaSCN 50 mM, Tat++ cells, 25°C 8 h): ~ 40% | concentration sufficient to maximally reduce the mCherry fluorescence signal without affecting cell growth ([1]; dose response, Tat++ cells): 30 mM | effect on in vitro Tat transport ([2]; NaSCN alone): completely inhibits | effect on growth of E. coli cultures ([3]; NaSCN 50 mM): without affecting growth

[N-]=[N+]=[N-].[Na+] [Sodium azide]
effect on mCherry fluorescence signal ([1]; NaN3 0.1%): decreased the mCherry fluorescence signal | effect on cell growth ([3]; NaN3 0.1%): inhibited cell growth

CO[C@@H]1C[C@@H](C[C@H]2CC[C@H](C)[C@H]([C@@H](C)C(=O)O)O2)O[C@]2(O[C@](C)([C@H]3CC[C@@](C)([C@@H]4O[C@@H]([C@H]5O[C@@](O)(CO)[C@H](C)C[C@@H]5C)C[C@@H]4C)O3)C[C@H]2C)[C@@H]1C [nigericin]
effect on mCherry fluorescence in culture [1]: did not affect | effect on Tat transport in vitro [2]: completely block | effect on cell growth [3, 4]: did not affect

CC(C)[C@@H]1NC(=O)[C@H](C)OC(=O)[C@@H](C(C)C)NC(=O)[C@@H](C(C)C)OC(=O)[C@H](C(C)C)NC(=O)[C@H](C)OC(=O)[C@@H](C(C)C)NC(=O)[C@@H](C(C)C)OC(=O)[C@H](C(C)C)NC(=O)[C@H](C)OC(=O)[C@@H](C(C)C)NC(=O)[C@@H](C(C)C)OC1=O [valinomycin]
effect on mCherry fluorescence in culture [1]: did not affect | effect on Tat transport in vitro [2]: completely block | effect on cell growth [3, 4]: did not affect
